In patent US20260315434A1, “USE OF GUAIACOL SESQUITERPENE LACTONE DERIVATIVES” (NANJING UNIVERSITY OF CHINESE MEDICINE, priority 2023, published 2026):
Values after ≈ are worked out from the molar mass of the structure shown. Marks after values point to notes of the source that are not given here.

Legend:
[1] = test system: inflammatory cytokines (IL-1β, IL-6) in lung tissue; assay: LPS-induced acute lung injury, inflammatory cytokines by ELISA; format: in vivo, C57BL/6 mice; conditions: for IL-1β: LPS 2411.32; for IL-6: LPS 3520.94
Description: After a 7-day acclimatization period, mice were used for subsequent experiments.
The abdomen was opened, and the lungs were removed. They were rinsed twice with pre-chilled PBS. […] The remaining tissue was stored at −70° C. for future use.
Data Statistics: All data are expressed as means S.E.M. Statistical differences between groups were analyzed using one-way ANOVA and t-tests in SPSS software. P values less than 0.05 were considered statistically significant.

[2] = test system: inflammatory cytokines (TNF, IL-6, IL-1) in lung tissue; assay: LPS-induced sepsis, lung inflammatory factor mRNA (Q-PCR); conditions: for Il1 mRNA expression, lung: LPS 19.01; for Il6 mRNA expression, lung: LPS 20.34; for Tnf mRNA expression, lung: Normal = 1.00, LPS 10.92
Description: (§1) They were acclimated for 7 days before experimentation.
(§2) The normal and model groups received equal volumes of solvent (0.5% CMC-Na) via oral gavage.
(§3) Specimen Collection: One hour after the final drug administration, mice were euthanized by cervical dislocation. The abdominal cavity was opened, and the lungs, liver, and kidneys were removed. These organs were rinsed twice with pre-chilled PBS. Tissue samples were excised from the mouse lungs, left hepatic lobe, and kidneys. […] Remaining tissues were stored at −70° C. for future use.
(§4) Accurately weigh 20 mg of kidney, lung, and liver tissue. Rinse with pre-chilled PBS solution, cut into small pieces using ophthalmic scissors, and place into a glass homogenizer. Add 1 mL of Trizol reagent and grind to prepare tissue homogenate. Transfer the homogenate to a RNAse-free 1.5 mL EP tube and lyse on ice for 10 min. Add 200 μL chloroform, vortex vigorously, and let stand on ice for 3-5 min. Centrifuge at 12,000 rpm and 4° C. for 15 min. Carefully transfer the supernatant to a new RNAse-free 1.5 mL EP tube. Add an equal volume of pre-chilled isopropanol, incubate on ice for 30 min, then centrifuge at 12,000 rpm and 4° C. for 10 min. Discard the supernatant. […] Subsequently, dissolve the pellet in 10 μL DEPC-treated water. Dilute 1 μL of the total RNA solution 100-fold and measure the OD values at 260 nm and 280 nm using a full-wavelength microplate reader.
(§5) Following the method described in the kit manual, subsequent experiments were conducted using a 20 μL reverse transcription reaction system:
(§6) Primers were designed based on the nucleotide sequence of the mouse in GenBank and synthesized.
(§7) Perform subsequent experiments using a 20 μL reaction system according to the kit instructions:
(§8) After adding the above reagents to micro reaction tubes, seal them with the cap and place them in the Q-PCR instrument. Set the parameters according to the following reaction conditions to perform the amplification experiment.
(§9) Record the threshold cycle (Ct) values for each group and perform calculation and analysis using the 2^−ΔΔCt method (setting the expression level of the reference gene Gapdh as 1 to correct the expression levels of the target genes).
(§10) Data Statistics: All data are presented as Means±S.E.M. Analysis of variance (ANOVA) was performed to assess the significance of differences. Groups showing significant differences in ANOVA were further compared using one-way ANOVA and Dunnett's test. A P-value <0.05 was considered statistically significant.

[3] = test system: fibrosis-related factors (Acta2, Col1a1, Tgfb1) in liver tissue; assay: CCl4-induced acute liver injury, liver fibrosis-related factor mRNA; format: in vivo, C57BL/6 mice; set-up: unit not given here
Description: They were acclimated for 7 days before use in experiments.
Mice were randomly assigned to groups. One group was arbitrarily designated as the normal group, while the remaining groups served as model group, Compound 1 group, Hydrochloride 20 group, Fumarate 21 group, and Silibinin group, with 6 mice per group. Except for the normal group receiving 10 mL olive oil/kg via injection, all other mice received 0.5 mL CCl4+9.5 mL olive oil/kg body weight via intraperitoneal injection, maintaining a CCl4 to olive oil ratio of 1:19. Starting from day 1 of modeling, Compound 1, Hydrochloride 20, and Fumarate 21 were administered orally for 3 consecutive days.
The blood was allowed to stand at room temperature for 2 hours, then centrifuged at 3000 rpm for 20 minutes. Serum was aspirated, aliquoted, and stored at −70° C. for future use. After blood collection, euthanize mice by cervical dislocation. Perform laparotomy to remove the liver. Rinse twice with pre-chilled PBS. Excise the left hepatic lobe tissue. […] Store remaining tissue at −70° C. for future use.
Q-PCR Analysis: Tissue total RNA extraction, cDNA synthesis, and PCR amplification methods are identical to Example 4. Additional primer information is as follows:
Data Statistics: All data are expressed as means f standard error of the mean (S.E.M.). Differences were analyzed for significance using analysis of variance (ANOVA). For groups showing significant differences in ANOVA, one-way ANOVA followed by Dunnett's test was performed to compare intergroup differences.

[4] = test system: inflammatory factors (TNF, IL-6, IL-1) in renal tissue; assay: Lupus nephritis, renal inflammatory factor mRNA; format: in vivo, MRL/lpr mice; conditions: 8 weeks
Description: Experimental animals: MRI/MpJ and MRL/lpr mice, female, 10 weeks old, purchased from GemPharmatech LLC. Production license number: SCXK(Su)2023-0009. […] They were acclimated for 7 days before use in experiments.
Oral administration was performed continuously for 8 weeks.
Allow blood to stand at room temperature for 2 hours, then centrifuge at 3000 rpm for 20 minutes. Aspirate the serum, aliquot it, and store at −70° C. for future use. After blood collection, euthanize mice by cervical dislocation. Open the abdominal cavity, remove kidneys, and dissect out perirenal fat and capsules. […] Store remaining tissues at −70° C. for future use.

[5] = test system: inflammatory factors (MCP-1, TNF-α) in renal tissue; assay: Diabetic nephropathy, renal inflammatory factor mRNA; format: in vivo, C57/BL6J mice; set-up: Mcp-1 mRNA expression, kidney / Tnf-α mRNA expression, kidney / IL-6 mRNA expression, kidney: unit not given here; conditions: 8 weeks
Description: Experimental animals: C57/BL6J mice, male, 12 weeks old, purchased from GemPharmatech LLC. Production license number: SCXK(Su)2023-0009. […] Animals were acclimated for 7 days before use in experiments.
Administer streptozotocin (STZ, 50 mg/kg) via intraperitoneal injection for 5 consecutive days. After 72 hours, select mice with fasting blood glucose levels exceeding 16.7 mmol/L as model mice. […] Model mice were fed a high-fat diet (HFD) providing 60% of energy from fat for 8 weeks. After 8 weeks, gavage administration commenced.
Specimen Collection: One hour after the last drug administration, enucleate the eyeball to collect blood. Allow blood to stand at room temperature for 2 hours, then centrifuge at 3000 rpm for 20 minutes. Aspirate the serum, aliquot it, and store at −70° C. for future use. After blood collection, euthanize the mice by cervical dislocation. Open the abdominal cavity, remove the kidneys, and dissect away the perirenal fat and capsule. Store the tissue at −70° C. for future use.

[6] = test system: inflammatory factors (TNF, IL-6, IL-1) in renal tissue; assay: LPS-induced sepsis, renal inflammatory factor mRNA (Q-PCR); conditions: for Tnf mRNA expression, kidney: LPS 7.30; for Il1 mRNA expression, kidney: LPS 7.99; for Il6 mRNA expression, kidney: LPS 8.80
Description: as §1, §2, §3, §4, §5, §6, §7, §8, §9, §10

Hepa1-6 cells = assay: Antitumor efficacy combined with anti-PD-L1 monoclonal antibody, Hepa1-6 xenograft; format: in vivo, C57BL/6 mice; conditions: for combination with anti-PD-L1 monoclonal antibody vs. single agents, Hepa1-6: 1 mg/kg/day i.p., 2 weeks, result in words
Description: Hepa1-6 cells were cultured and expanded in vitro. An appropriate number of cells in the logarithmic growth phase was resuspended in a mixture of serum-free DMEM medium and Matrigel (1:1). Under sterile conditions, prepare a cell suspension at 2.5×10^6 cells/100 μL. Using a syringe, inject 100 μL of the cell suspension subcutaneously into the left forelimb axilla of male C57BL/6 mice. […] Compounds 20 and 103 were administered via intraperitoneal injection daily, while anti-PD-L1 monoclonal antibody was administered intraperitoneally every three days for a total of two weeks. During the treatment period, mouse body weight and tumor diameter were measured daily. At the end of the experiment, mice were euthanized by cervical dislocation, and tumors were removed and weighed. Tumor volume (TV) was calculated using the formula: TV=½×a×b^2, where a represents the longest diameter of the tumor and b represents the shortest diameter.

[7] = Water solubility testing of compounds (HPLC); conditions: deionized water, water, Water-solubility, 37 °C
[8] = dose 1 (head μmol/kg/day; text 1 mg/kg/day), i.p. daily, two weeks, Hepa1-6

Structure (SMILES) | IL-1β ([1]; 0.1 mg/kg) [pg/mL] | IL-6 ([1]; 0.1 mg/kg) [pg/mL] | IL-1β ([1]; 1 mg/kg) [pg/mL] | IL-6 ([1]; 1 mg/kg) [pg/mL] | Il1 mRNA expression, lung ([2]; 1 mg/kg oral) | Il6 mRNA expression, lung ([2]; 1 mg/kg oral) | Tnf mRNA expression, lung ([2]; 1 mg/kg oral) | Acta2 mRNA expression, liver ([3]; 1 mg/kg oral) | Col1a1 mRNA expression, liver ([3]; 1 mg/kg oral) | Tgfb1 mRNA expression, liver ([3]; 1 mg/kg oral) | Il1 mRNA expression, kidney ([4]; 30 mg/kg oral) | Il6 mRNA expression, kidney ([4]; 30 mg/kg oral) | Tnf mRNA expression, kidney ([4]; 30 mg/kg oral) | Mcp-1 mRNA expression, kidney ([5]; 1 mg/kg gavage) | Tnf-α mRNA expression, kidney ([5]; 1 mg/kg gavage) | Mcp-1 mRNA expression, kidney ([5]; 10 mg/kg gavage) | Tnf-α mRNA expression, kidney ([5]; 10 mg/kg gavage) | Tnf mRNA expression, kidney ([6]; 1 mg/kg oral) | Il1 mRNA expression, kidney ([6]; 1 mg/kg oral) | Il6 mRNA expression, kidney ([6]; 1 mg/kg oral) | other results
CN(C)C[C@@H]1C(=O)O[C@H]2[C@H]1CC[C@@]1(C)C[C@]13CC[C@@](C)(O)[C@H]23 [Compound 20] | 1570.02 ± 62.95 | 2348.32 ± 202.75 | 708.74 ± 38.40 | 1172.00 ± 240.50 | 5.22 ± 0.90 | 7.16 ± 0.71 | 6.52 ± 0.29 | 1.85 ± 0.77 | 1.16 ± 0.26 | 0.92 ± 0.21 | 6.01 ± 0.99 | 11.80 ± 1.90 | 4.04 ± 0.33 | 2.33 ± 0.20 | 1.38 ± 0.17 | 1.40 ± 0.22 | 0.96 ± 0.13 | 6.20 ± 0.60 | 2.76 ± 0.59 | 2.43 ± 0.64 | tumor inhibition rate, combination (Hepa1-6 cells; 1 mg/kg/d i.p. combined with anti-PD-L1 monoclonal antibody (5 mg/kg/d)): 96.99%; combination with anti-PD-L1 monoclonal antibody vs. single agents, Hepa1-6 (Hepa1-6 cells): synergistic effect
CN(C)C[C@@H]1C(=O)O[C@H]2[C@H]1CC[C@@]1(C)C[C@]13CC[C@@](C)(O)[C@H]23 [Compound 21] | 1623.55 ± 32.64 | 2585.26 ± 273.50 | 888.28 ± 35.20 | 1288.32 ± 123.80 | 6.79 ± 0.72 | 9.10 ± 1.20 | 8.67 ± 1.51 | 2.18 ± 0.42 | 1.26 ± 0.27 | 0.88 ± 0.16 |  |  |  |  |  |  |  | 6.04 ± 1.62 | 2.82 ± 0.33 | 2.70 ± 0.52 | Il1 mRNA expression, lung ([2]; 0.1 mg/kg oral): 13.30 ± 0.88; Il6 mRNA expression, lung ([2]; 0.1 mg/kg oral): 18.40 ± 3.16; Tnf mRNA expression, lung ([2]; 0.1 mg/kg oral): 8.79 ± 1.18; Acta2 mRNA expression, liver ([3]; 0.1 mg/kg oral): 2.86 ± 0.26; Col1a1 mRNA expression, liver ([3]; 0.1 mg/kg oral): 1.83 ± 0.53; Tgfb1 mRNA expression, liver ([3]; 0.1 mg/kg oral): 1.08 ± 0.29; Tnf mRNA expression, kidney ([6]; 0.1 mg/kg oral): 6.70 ± 0.80; Il1 mRNA expression, kidney ([6]; 0.1 mg/kg oral): 6.56 ± 0.88; Il6 mRNA expression, kidney ([6]; 0.1 mg/kg oral): 6.05 ± 0.19
CC1=C2CC[C@@](C)(OC(=O)N3CCCCC3)[C@@H]2[C@H]2OC(=O)[C@@H](CN(C)C)[C@@H]2CC1 [Compound 102] |  |  |  |  |  |  |  |  |  |  |  |  |  |  |  |  |  |  |  |  | solubility [7]: 132 mg/mL (≈ 328 mM)
CC1=C2CC[C@@](C)(OC(=O)N3CCCC3)[C@@H]2[C@H]2OC(=O)[C@@H](CN3CCCC3)[C@@H]2CC1 [Compound 103] |  |  |  |  |  |  |  |  |  |  | 4.11 ± 0.41 | 1.83 ± 0.91 | 4.10 ± 0.67 | 6.78 ± 1.70 | 3.14 ± 0.57 | 5.67 ± 2.31 | 2.15 ± 0.13 |  |  |  | solubility [7]: 278 mg/mL (≈ 668 mM); Il1 mRNA expression, kidney ([4]; 10 mg/kg, oral): 6.78 ± 0.96; Il6 mRNA expression, kidney ([4]; 10 mg/kg, oral): 2.47 ± 0.53; Tnf mRNA expression, kidney ([4]; 10 mg/kg, oral): 7.24 ± 3.10; IL-1 β mRNA expression, kidney ([5]; 1 mg/kg gavage): 1.00 ± 0.25 ^; IL-6 mRNA expression, kidney ([5]; 1 mg/kg gavage): 4.47 ± 1.06; IL-1 β mRNA expression, kidney ([5]; 10 mg/kg gavage): 0.96 ± 0.18**^; IL-6 mRNA expression, kidney ([5]; 10 mg/kg gavage): 3.97 ± 0.94; combination with anti-PD-L1 monoclonal antibody vs. single agents, Hepa1-6 (Hepa1-6 cells): synergistic effect; Tumor inhibition rate (%) (Hepa1-6 cells; [8]): 62.26%; Tumor weight (Hepa1-6 cells; [8]): 0.16 ± 0.05 g
